From patent US11279726B2, “Norbornene-based amphipathic compound and utilization thereof” (Industry-University Cooperation Foundation Hanyang …, priority 2017, dated 2022)

Target: T1, Salmonella typhimurium melibiose permease (MelBSt) (Salmonella typhimurium, UniProt P30878)
T1 construct: made in house; host or cells: E. coli DW2 (ΔmelB, ΔlacZY)
Assay: MelBSt extraction and thermostability (SDS-PAGE / western blotting)
Settings: 1.5 wt %, elevated temperature
Description: An experiment of measuring structural stability of MelBSt (Salmonella typhimurium melibiose permease) protein with NBMs was carried out. The MelBSt protein was extracted from the membrane using NBMs or DDM, and the amounts and structure of the extracted proteins were analyzed by SDS-PAGE and western blotting. The concentration of the used amphiphilic compound was 1.5 wt %. The proteins were extracted at four temperatures (0, 45, 55, and 65° C.) and incubated at the same temperature for 90 minutes, and the amounts of the remaining proteins solubilized in an aqueous solution were measured, so as to simultaneously evaluate both performances of the compound such as protein extraction efficiency and stabilization activity. The amounts of the proteins extracted and stabilized by respective amphiphilic molecules were represented as relative values (%) to the amounts of total proteins contained in the membrane sample not treated with an amphiphilic molecule.
Specifically, Salmonella typhimurium melibiose permease (MelBSt) with a C-terminal 10-His tag was expressed in E. coli DW2 cells (^ΔmelB and ^ΔlacZY) using plasmid pK95^ΔAHB/WT MelBSt/CH10. Cell growth and membrane preparation were carried out according to the method described in the literature written by A. S. Ethayathulla et al. (Nat. Commun. 2014, 5, 3009). Protein assays were carried out with a Micro BCA kit (Thermo Scientific, Rockford, Ill.). The measurement of MelBSt stability was carried out on NBMs or DDM according to the protocol described by P. S. Chae et al. (Nat. Methods 2010, 7, 1003-1008). Membrane samples containing MelBSt (final protein concentration was 10 mg/mL) were incubated with a solubilization buffer (20 mM sodium phosphate, pH 7.5, 200 mM NaCl, 10% glycerol, 20 mM melibiose) and 1.5% (w/v) of DDM or NBMs (X-NBM-C10, D-NBM-C10, X-NBM-C11 or D-NBM-C11) at four different temperatures (0, 45, 55, 65° C.) for 90 minutes. To remove insoluble materials, following ultracentrifugation at 355,590 g using a Beckman Optimal™ MAX ultracentrifuge with TLA-100 rotor for 45 minutes at 4° C. was performed, and 20 μg of each protein sample was separated by SDS-16% PAGE, and then immunoblotted with a Penta-His-HRP antibody (Qiagen, Germantown, Md.). MelBSt was detected using SuperSignal West Pico chemiluminescent substrate by an ImageQuant LAS 4000 Biomolecular Imager (GE Health Care Life Science).

T1 sequence (P30878 whole entry): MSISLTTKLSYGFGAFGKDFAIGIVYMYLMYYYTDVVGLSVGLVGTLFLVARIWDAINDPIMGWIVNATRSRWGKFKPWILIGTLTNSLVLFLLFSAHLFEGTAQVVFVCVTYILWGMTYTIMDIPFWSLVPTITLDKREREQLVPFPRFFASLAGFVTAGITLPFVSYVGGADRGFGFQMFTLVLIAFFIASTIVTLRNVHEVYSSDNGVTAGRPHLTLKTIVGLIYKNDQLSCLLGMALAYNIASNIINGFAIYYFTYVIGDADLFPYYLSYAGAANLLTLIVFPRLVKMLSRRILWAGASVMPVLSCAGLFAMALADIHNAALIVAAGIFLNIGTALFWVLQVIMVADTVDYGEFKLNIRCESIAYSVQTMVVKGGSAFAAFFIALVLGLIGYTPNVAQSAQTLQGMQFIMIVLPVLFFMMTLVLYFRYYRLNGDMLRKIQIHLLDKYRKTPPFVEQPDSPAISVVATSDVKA

Question: For `CCCCCCCCCCCOCC1C2CC([C@@H]1COCCCCCCCCCCC)[C@H](O[C@@H]1OC(CO)[C@@H](O[C@H]3OC(CO)[C@@H](O)C(O)C3O)C(O)C1O)C2O[C@@H]1OC(CO)[C@@H](O[C@H]2OC(CO)[C@@H](O)C(O)C2O)C(O)C1O` (stereo partly drawn) [D-NBM-C11], which “MelBSt membrane protein stabilization activity (overall)” value is on record?
Answer: excellent membrane protein stabilization activity
